Data from patent publication US7214663B2, “Tripeptide prodrug compounds” (Medarex, Inc., priority 2001, dated 2007).
Non-standard residues stand in square brackets, D forms with d. Residues, ends and D or L forms follow the SMILES beside them. *: point of attachment. Daunorubicin = COc1cccc2c1C(=O)c1c(O)c3c(c(O)c1C2=O)C[C@@](O)(C(C)=O)C[C@@H]3O[C@H]1C[C@H](N*)[C@H](O)[C@H](C)O1; Sta = CC(C)C[C@H](N)[C@@H](O)CC(=O)O; pGlu = O=C1CC[C@@H](C(=O)O)N1; Isovaleryl = CC(C)CC(=O)*

Key:
[1] = Metabolism and clearance of Suc-Met-Ala-Leu-Dox in mice (plasma, urine); assay type: in vivo, mouse
Protocol: Plasma samples were obtained at 1 or 4 hours, and urine was collected at 2 and 24 hours post administration. Levels of the prodrug and metabolites were measured by LC-MS with UV detection of doxorubicin.

[2] = Metabolism and clearance of Suc-Leu-Ala-Leu-Dox in mice (plasma, urine); assay type: in vivo, mouse
Protocol: Plasma samples of 100 μl were transferred to microcentrifuge tubes (1.5 mL) and an internal standard of daunorubicin (20 μL at 0.5 mg/ml) was added together with acetonitrile (400 μl). The tubes were capped and briefly vortexed followed by centrifugation at 14,000 rpm. 420 μl from each tube was removed and dried in vacuo. Each sample was reconstituted in 65 μl 20 mM aqueous ammonium formate (AF) pH 4.5 buffer containing acetonitrile (20%) prior to analysis by reverse phase liquid chromatography in combination with tandem mass spectrometry (LC MS/MS).
Urine was collected at 2 and 24 hours post administration from pairs of mice in metabolic cages. Urine samples were diluted with AF buffer containing acetonitrile (20%) to give a target analyte concentration within the practical range of the LC MS/MS assay. 30 μl of each diluted sample was placed in a micro centrifuge tube (1.5 ml) and an internal standard of daunorubicin (20 μL at 0.5 mg/ml) was added together with 50 μl of AF buffer containing acetonitrile (20%). Each sample was then analyzed by LC MS/MS.
An Agilent HP1100 HPLC with DAD detector and Chemstation software was coupled to a PE Sciex API 365 mass spectrometer with an electrospray ion source. HPLC was performed on a TSK-Gel Super ODS, […], 4.6×50 mm (TosoHaas) reversed phase column equipped with a […] C18 guard disc (Higgins Analytical) and stainless steel frit (Upchurch Scientific). Chromatography was performed at room temperature. The flow rate was 0.5 ml/min. Injection volume was 50 μl. Gradient elution was performed using a mobile phase of AF buffer with increasing amounts of acetonitrile. The API 365 was operated at 365° C. in a multiple reaction monitoring mode, set to monitor specific analyte parent-daughter ion pairs. Integration of chromatograms was performed by MacQuan software (PE Sciex) and quantitation of each analyte obtained by comparison to previously obtained calibration curves. Daunorubicin was used as an internal standard in all cases.

[3] = tested on: HeLa cell anion exchange fraction (F1), trouase; test: Relative cleavage by HeLa cell anion exchange fraction (F1) versus Suc-βAla-Leu-Ala-Leu standard; assay type: biochemical, human; conditions: 2 hr at 37° C., 12.5 μg/mL, HeLa F1; relative to Suc-βAla-Leu-Ala-Leu-(Dox or Dnr) standard
Protocol: Thirty billion commercially produced HeLa Cells (human cervical carcinoma, Computer Cell Culture Ceizter, Seneffe, Belgium) were homogenized with a sonicator and with a Dounce homogenizer in 108 mL of aqueous lysis solution. The lysis solution contained 0.02% w/v Triton X-100, 0.04% w/v sodium azide, and a cocktail of protease inhibitors (2 tablets/50 mL Complete™, EDTA-free tablets, Roche Molecular Biochemicals). The cell homogenate was centrifuged 30 minutes at 4° C. at 5000×g and the pellet was homogenized in a second 108 mL of lysis solution using a Dounce homogenizer and centrifuged as before. The supernatants were combined and centrifuged for 90 min at 145,000×g at 4° C.
A portion of the ultracentrifugation supernatant was diluted 2-fold with a 20 mM triethanolamine-HCl pH 7.2 buffer containing 0.01% (w/v) Triton X-100 and 0.02% (w/v) sodium azide (equilibration buffer). Thirty mL of the resulting solution, corresponding to approximately 180 mg of protein, was loaded at 4° C. on a 2.6×9.4 cm Source™ 15Q (Amersham Pharmacia Biotech) low pressure anion exchange chromatography column (1 ml/minute). The column was then washed with 250 ml of the equilibration buffer at a flow rate of 1 mL/minute. Proteins were eluted in a NaCl linear concentration gradient (0–0.5 M in the equilibration buffer, total volume of the gradient was 1000 ml) at a flow rate of 3 ml/minute. Two-minute fractions were collected and used for enzyme activity determination using βAla-Leu-Ala-Leu-Dox as the substrate. Its transformation into Ala-Leu-Dox was quantified by reverse phase high performance liquid chromatography utilizing fluorescence detection of the anthracycline moiety. The fractions containing the highest activity levels were pooled (fractions #43–46; ˜0.13 M NaCl), supplemented with protease inhibitors (Complete™, EDTA-free tablets, Roche Molecular Biochemicals), and stored as aliquots at −80° C.
Test compounds were incubated for 2 hr at 37° C. at a concentration of 12.5 μg/mL with HeLa cell anion exchange fraction (F1), as prepared in Example 1(c). Following incubation, three volumes of acetonitrile were added to stop the reaction and remove protein from the mixture. The sample was centrifuged at 18,000 g for 5 minutes and 100 μL of supernatant was mixed with 300 μL of water prior to analysis by HPLC. For HPLC analysis 50 μL of sample was injected on a 4.6×50 mm 2μ TSK Super-ODS chromatography column at 40° C. and eluted with a 3 minute linear gradient from 26% to 68% acetonitrile in aqueous 20 mM ammonium acetate pH 4.5 buffer at 2 mL/min. Detection was by fluorescence using an excitation wavelength of 235 nm and an emission wavelength of 560 nm.
the amount of cleavage of each test compound was compared to the amount of a standard Suc-βAla-Leu-Ala-Leu-therapeutic agent conjugate cleaved by F1 under the same conditions. The therapeutic agent in the standard (Dox or Dnr) was the same as in the test compound. Table 3 provides the relative cleavage rates of several tripeptide prodrugs.

[4] = tested on: carcinoma cell trouase; test: Inhibitor profile of carcinoma cell trouase; assay type: biochemical, human
[5] = in vivo; conditions: female, ICR, mouse, iv, 100 umol/kg
Protocol: Plasma was obtained from three individual animals in each group at 5 minutes, 1, 2, 4, or 6 hr.

[6] = after single intravenous 120 mg/kg Suc-Met-Ala-Leu-Dox
[7] = after single intravenous 117 mg/kg Suc-Leu-Ala-Leu-Dox

Row | Compound | Relative Cleavage % [3] | inhibition of carcinoma cell trouase [4] | other results
1 | COc1cccc2c1C(=O)c1c(O)c3c(c(O)c1C2=O)C[C@@](O)(C(=O)CO)C[C@@H]3O[C@H]1C[C@H](NC(=O)[C@H](CC(C)C)NC(=O)[C@H](C)N)[C@H](O)[C@H](C)O1 [Ala-Leu-Dox] | – | – | Plasma 1 hr, percent of administered dose ([1]; mouse, in vivo, iv, 120 mg/kg): 0.002%; Plasma 4 hr, percent of administered dose ([1]; mouse, in vivo, iv, 120 mg/kg): 0.000%; Urine 2 hr, percent of administered dose ([1]; mouse, in vivo, iv, 120 mg/kg): 0.16%; Urine 24 hr, percent of administered dose ([1]; mouse, in vivo, iv, 120 mg/kg): 0.02%; Plasma 1 hr, percent of administered dose ([2]; mouse, in vivo, iv, 117 mg/kg): 0.006%; Plasma 4 hr, percent of administered dose ([2]; mouse, in vivo, iv, 117 mg/kg): 0.000%; Urine 2 hr, percent of administered dose ([2]; mouse, in vivo, iv, 117 mg/kg): 0.02%; Urine 24 hr, percent of administered dose ([2]; mouse, in vivo, iv, 117 mg/kg): 0.01%
2 | CCCCC(NC(=O)CCC(=O)O)C(=O)NCC(=O)NC(Cc1ccccc1)C(=O)NC1CC(OC2CC(O)(C(C)=O)Cc3c(O)c4c(c(O)c32)C(=O)c2c(OC)cccc2C4=O)OC(C)C1O (stereo not drawn) [Suc-Nle-Gly-Phe-Dnr] | 17% | – | –
3 | c1cnc2c(c1)ccc1cccnc12 [1,10-phenanthroline] | – | inhibited | –
4 | COc1cccc2c1C(=O)c1c(O)c3c(c(O)c1C2=O)CC(O)(C(C)=O)CC3OC1CC(NC(=O)C(CC(C)C)NC(=O)C(C)NC(=O)C(CCSC)NC(=O)CCC(=O)O)C(O)C(C)O1 (stereo not drawn) [Suc-Met-Ala-Leu-Dnr] | 69% | – | –
5 | COc1cccc2c1C(=O)c1c(O)c3c(c(O)c1C2=O)C[C@@](O)(C(=O)CO)C[C@@H]3O[C@H]1C[C@H](NC(=O)[C@@H](N)CC(C)C)[C@H](O)[C@H](C)O1 [Leu-Dox] | – | – | Plasma 1 hr, percent of administered dose [1, 6]: 0.022%; Plasma 4 hr, percent of administered dose [1, 6]: 0.001%; Urine 2 hr, percent of administered dose [1, 6]: 7.28%; Urine 24 hr, percent of administered dose [1, 6]: 1.25%; plasma level, times higher than Ala-Leu-Dox ([1]; at both 1 and 4 hours after 120 mg/kg Suc-Met-Ala-Leu-Dox): about 10 times; Plasma 1 hr, percent of administered dose [2, 7]: 0.019%; Plasma 4 hr, percent of administered dose [2, 7]: 0.001%; Urine 2 hr, percent of administered dose [2, 7]: 1.53%; Urine 24 hr, percent of administered dose [2, 7]: 0.45%
6 | CO[C@@H]1[C@H](OC(=O)/C=C/C=C/C=C/C=C/C(=O)O)CC[C@]2(CO2)[C@H]1[C@@]1(C)O[C@@H]1CC=C(C)C [fumagillin] | – | not | –
7 | COc1cccc2c1C(=O)c1c(O)c3c(c(O)c1C2=O)CC(O)(C(C)=O)CC3OC1CC(NC(=O)C(CC(C)C)NC(=O)C(C)NC(=O)C(Cc2ccc(O)cc2)NC(=O)CCC(=O)O)C(O)C(C)O1 (stereo not drawn) [Suc-Tyr-Ala-Len-Dnr] | 77% | – | –
8 | CCC(C)C(NC(=O)CNC(=O)C(CCSC)NC(=O)CCC(=O)O)C(=O)NC1CC(OC2CC(O)(C(C)=O)Cc3c(O)c4c(c(O)c32)C(=O)c2c(OC)cccc2C4=O)OC(C)C1O (stereo not drawn) [Suc-Met-Gly-Ile-Dnr] | 46% | – | –
9 | COc1cccc2c1C(=O)c1c(O)c3c(c(O)c1C2=O)C[C@@](O)(C(C)=O)C[C@@H]3O[C@H]1C[C@H](NC(=O)[C@H](Cc2ccccc2)NC(=O)CNC(=O)[C@H](CCSC)NC(=O)CCC(=O)O)[C@H](O)[C@H](C)O1 [Suc-Met-Gly-Phe-Dnr] | 29% | – | –
10 | COc1cccc2c1C(=O)c1c(O)c3c(c(O)c1C2=O)C[C@@](O)(C(C)=O)C[C@@H]3O[C@H]1C[C@H](NC(=O)[C@H](CC(C)C)NC(=O)[C@H](C)NC(=O)[C@H](CC(C)C)NC(=O)CCC(=O)O)[C@H](O)[C@H](C)O1 [Suc-Leu-Ala-Leu-Dnr] | 76% | – | –
11 | CCC(C)C(NC(=O)C(C)NC(=O)C(Cc1ccc(O)cc1)NC(=O)CCC(=O)O)C(=O)NC1CC(OC2CC(O)(C(C)=O)Cc3c(O)c4c(c(O)c32)C(=O)c2c(OC)cccc2C4=O)OC(C)C1O (stereo not drawn) [Suc-Tyr-Ala-Ile-Dnr] | 25% | – | –
12 | CCC(C)C(NC(=O)CNC(=O)C(Cc1ccccc1)NC(=O)CCC(=O)O)C(=O)NC1CC(OC2CC(O)(C(C)=O)Cc3c(O)c4c(c(O)c32)C(=O)c2c(OC)cccc2C4=O)OC(C)C1O (stereo not drawn) [Suc-Phe-Gly-Ile-Dnr] | 54% | – | –
13 | aminoethylbenzene-sufonate | – | not | –
14 | COc1cccc2c1C(=O)c1c(O)c3c(c(O)c1C2=O)C[C@@](O)(C(C)=O)C[C@@H]3O[C@H]1C[C@H](NC(=O)[C@H](CC(C)C)NC(=O)[C@H](C)NC(=O)[C@H](CC(C)C)NC(=O)[C@@H]2CCC(=O)N2)[C@H](O)[C@H](C)O1 [Pyg-Leu-Ala-Leu-Dnr] ([pGlu]LAL-Daunorubicin) | 76% | – | –
15 | aprotinin | – | not | –
16 | COc1cccc2c1C(=O)c1c(O)c3c(c(O)c1C2=O)CC(O)(C(C)=O)CC3OC1CC(NC(=O)C(CC(C)C)NC(=O)CNC(=O)C(CCSC)NC(=O)CCC(=O)O)C(O)C(C)O1 (stereo not drawn) [Suc-Met-Gly-Leu-Dnr] | 55% | – | –
17 | CC(C)C[C@H](NC(=O)[C@H]1O[C@@H]1C(=O)O)C(=O)NCCCCN=C(N)N [Compound E64, E64] | – | not | –
18 | [Zn+2] [Zn^2+] | – | – | inhibition of hydrolysis of Suc-βAla-Leu-Ala-Leu-Dox by HeLa cell Fraction 1 ([4]; 100 μM): completely inhibits
19 | CC(C)CC(=O)N[C@H](C(=O)N[C@H](C(=O)N[C@@H](CC(C)C)[C@@H](O)CC(=O)N[C@@H](C)C(=O)N[C@@H](CC(C)C)[C@@H](O)CC(=O)O)C(C)C)C(C)C [pepstatin] (Isovaleryl-VV[Sta]A[Sta]-OH) | – | not | –
20 | CC(=O)N[C@@H](CC(C)C)C(=O)N[C@@H](CC(C)C)C(=O)N[C@H](C=O)CCCNC(=N)N [leupeptin] | – | not | –
21 | CC[C@H](C)[C@H](NC(=O)CCNC(=O)CCC(=O)O)C(=O)N[C@@H](C)C(=O)N[C@@H](CC(C)C)C(=O)N[C@H]1C[C@H](O[C@H]2C[C@](O)(C(=O)CO)Cc3c(O)c4c(c(O)c32)C(=O)c2c(OC)cccc2C4=O)O[C@@H](C)[C@H]1O [Suc-βAla-Ile-Ala-Leu-Dox] | – | – | AUC [5]: 326 µM·h
22 | COc1cccc2c1C(=O)c1c(O)c3c(c(O)c1C2=O)CC(O)(C(C)=O)CC3OC1CC(NC(=O)C(CC(C)C)NC(=O)CNC(=O)C(Cc2ccccc2)NC(=O)CCC(=O)O)C(O)C(C)O1 (stereo not drawn) [Suc-Phe-Gly-Leu-Dnr] | 24% | – | –
23 | COc1cccc2c1C(=O)c1c(O)c3c(c(O)c1C2=O)CC(O)(C(C)=O)CC3OC1CC(NC(=O)C(Cc2ccccc2)NC(=O)CNC(=O)C(Cc2ccccc2)NC(=O)CCC(=O)O)C(O)C(C)O1 (stereo not drawn) [Suc-Phe-Gly-Phe-Dnr] | 12% | – | –
24 | CCCNC(=O)[C@H]1O[C@@H]1C(=O)N[C@H](C(=O)N1CCC[C@H]1C(=O)O)[C@@H](C)CC [CA074] | – | not | –
